The values that follow come from patent US12310975B2, “Modulators of BCL6 proteolysis and associated methods of use” (Arvinas Operations, Inc., priority 2019, dated 2025).

For assay [1], the target named is T1, BCL6 (Homo sapiens (Human), UniProt P41182). In words: BCL6 TR-FRET assay (BCL6-Avitag-Biotin / BCoR-Cy5 peptide). The assay is classed as binding. The procedure, abridged: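 After 30 min room-temperature preincubation of compound titrations with 2 nM biotinylated BCL6-Avitag, 100 nM Cy5-labelled BCoR peptide plus 2 nM Eu-streptavidin were added and TR-FRET read 2 h later. HEPES pH 7.5/125 mM NaCl buffer with Triton X, glutathione (or DTT) and BSA.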
(In general: Time-resolved FRET reads energy transfer from a long-lived donor to a nearby acceptor.)

Assay [2] has as its target T1, BCL6. The experiment in a line: Immunofluorescence high content imaging of BCL6 degradation in T47D cells. The assay is classed as cell-based. The settings on record: for Dmax: T47D. The procedure, abridged: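 T47D cells were treated 3 days at 37 °C with an 11-point 3-fold dilution series (top 0.1 or 1 μM), then fixed, permeabilized and immunostained for BCL6 with Alexa-488 secondary, CellMask and Hoechst. BCL6 signal was imaged at 10×, 4 fields/well, with top-hat smoothing.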

Where only a bound is given, the exact number is not on record here.

Take `CNC(=O)COc1cc2cc(Nc3cc(N4CCC(CN5CCN(c6ccc7c(c6)C(=O)N(C6CCC(=O)NC6=O)C7=O)CC5)CC4)ncc3Cl)ccc2n(C)c1=O` (stereo not drawn) [compound 197, 2-((6-((5-chloro-2-(4-((4-(2-(2,6-dioxopiperidin-3-yl)-1,3-dioxoisoindolin-5-yl)piperazin-1-yl)methyl)piperidin-1-yl)pyridin-4-yl)amino)-1-methyl-2-oxo-1,2-dihydroquinolin-3-yl)oxy)-N-methylacetamide]: the EC50 (commonly the midpoint of the concentration-response curve) in assay [1] was 50 to 100 nM. Further, in assay [2], the IC50 (commonly the point on the concentration scale where inhibition reaches its midpoint) is 50 to 100 nM and the Dmax – broadly, the largest share of the target that was removed – lay within 50 to 70%.

In the case of `CNC(=O)COc1cc2cc(Nc3nc(N4CCC(OC5CN(C6CCN(c7ccc8c(c7)C(=O)N(C7CCC(=O)NC7=O)C8=O)CC6)C5)CC4)ncc3Cl)ccc2n(C(C)C)c1=O` (stereo not drawn) [compound 526, 2-({6-[(5-chloro-2-{4-[(1-{1-[2-(2,6-dioxopiperidin-3-yl)-1,3-dioxo-2,3-dihydro-1H-isoindol-5-yl]piperidin-4-yl}azetidin-3-yl)oxy]piperidin-1-yl}pyrimidin-4-yl)amino]-2-oxo-1-(propan-2-yl)-1,2-dihydroquinolin-3-yl}oxy)-N-methylacetamide], in assay [1] (read-out: IC50), the IC50 was less than 10 nM. The same molecule showed a Dmax in assay [2] of 50 to 70%.

The molecule `CNC(=O)COc1cc2cc(Nc3nc(N4CCC(OC5CN(c6ccc7c(c6)C(=O)N(C6CCC(=O)NC6=O)C7=O)C5)CC4)ncc3Cl)ccc2n(C)c1=O` (stereo not drawn) [compound 227, 2-((6-((5-chloro-2-(4-((1-(2-(2,6-dioxopiperidin-3-yl)-1,3-dioxoisoindolin-5-yl)azetidin-3-yl)oxy)piperidin-1-yl)pyrimidin-4-yl)amino)-1-methyl-2-oxo-1,2-dihydroquinolin-3-yl)oxy)-N-methylacetamide] came in with an EC50 in assay [1] greater than 100 nM. In assay [2], this molecule yielded an IC50 of less than 10 nM and a Dmax of less than 50%.

`Cn1c(=O)n(CCC(C)(C)O)c2cc(Nc3nc(N4CCN(CC5CCN(c6cccc7c6C(=O)N(C6CCC(=O)NC6=O)C7=O)CC5)CC4)ncc3Cl)ccc21` (stereo not drawn) [compound 505, 4-(4-{[4-(5-chloro-4-{[3-(3-hydroxy-3-methylbutyl)-1-methyl-2-oxo-2,3-dihydro-1H-1,3-benzodiazol-5-yl]amino}pyrimidin-2-yl)piperazin-1-yl]methyl}piperidin-1-yl)-2-(2,6-dioxopiperidin-3-yl)-2,3-dihydro-1H-isoindole-1,3-dione]: the IC50 in assay [1] (read-out: IC50) lay within 50 to 100 nM. In addition, the Dmax in assay [2] was in the range of 50 to 70%.

Turning to `Cn1c(=O)n(CCC(C)(C)O)c2cc(Nc3nc(N4CCC(OC5CC6(CCN(c7cccc8c7C(=O)N(C7CCC(=O)NC7=O)C8=O)CC6)C5)CC4)ncc3Cl)ccc21` (stereo not drawn) [compound 493, 4-(2-{[1-(5-chloro-4-{[3-(3-hydroxy-3-methylbutyl)-1-methyl-2-oxo-2,3-dihydro-1H-1,3-benzodiazol-5-yl]amino}pyrimidin-2-yl)piperidin-4-yl]oxy}-7-azaspiro[3.5]nonan-7-yl)-2-(2,6-dioxopiperidin-3-yl)-2,3-dihydro-1H-isoindole-1,3-dione], in assay [1] (read-out: IC50), the IC50 was in the range of 10 to 50 nM. Further, the Dmax in assay [2] is less than 50%.

Consider `CNC(=O)COc1cc2cc(Nc3nc(N4CCC(CN5CC6CC5CN6c5ccc6c(c5)C(=O)N(C5CCC(=O)NC5=O)C6=O)CC4)ncc3Cl)ccc2n(C)c1=O` (stereo not drawn) [compound 204, 2-((6-((5-chloro-2-(4-((5-(2-(2,6-dioxopiperidin-3-yl)-1,3-dioxoisoindolin-5-yl)-2,5-diazabicyclo [2.2.1]heptan-2-yl)methyl)piperidin-1-yl)pyrimidin-4-yl)amino)-1-methyl-2-oxo-1,2-dihydroquinolin-3-yl)oxy)-N-methylacetamide], for which the EC50 in assay [1] fell in the range of 10 to 50 nM. Moreover, in assay [2], the IC50 was less than 10 nM and the Dmax is less than 50%.

Turning to `CNC(=O)COc1cc2cc(Nc3nc(N4CCC(CN5CCC(c6cc(OC)cc(C(=O)NC7CCC(=O)NC7=O)c6F)CC5)CC4)ncc3Cl)ccc2n(C(C)C)c1=O` (stereo not drawn) [compound 462, 3-[1-({1-[5-chloro-4-({3-[(methylcarbamoyl)methoxy]-2-oxo-1-(propan-2-yl)-1,2-dihydroquinolin-6-yl}amino)pyrimidin-2-yl]piperidin-4-yl}methyl)piperidin-4-yl]-N-(2,6-dioxopiperidin-3-yl)-2-fluoro-5-methoxybenzamide], the IC50 in assay [1] (read-out: IC50) is no less than 100 nM. In addition, the Dmax in assay [2] is no less than 70%.

For the molecule `CNC(=O)COc1cc2cc(Nc3nc(N4CCC5(CC4)CC(CN4CCN(c6cccc7c6C(=O)N(C6CCC(=O)NC6=O)C7=O)CC4)C5)ncc3Cl)ccc2n(C(C)C)c1=O` (stereo not drawn) [compound 484, 2-{[6-({5-chloro-2-[2-({4-[2-(2,6-dioxopiperidin-3-yl)-1,3-dioxo-2,3-dihydro-1H-isoindol-4-yl]piperazin-1-yl}methyl)-7-azaspiro[3.5]nonan-7-yl]pyrimidin-4-yl}amino)-2-oxo-1-(propan-2-yl)-1,2-dihydroquinolin-3-yl]oxy}-N-methylacetamide], in assay [1] (read-out: IC50), the IC50 was less than 10 nM. The molecule further returned a Dmax in assay [2] of 50 to 70%.

For the molecule `CNC(=O)COc1cc2cc(Nc3nc(N4CCC5(CC4)CC(CN4CCN(c6ccc7c(c6)C(=O)N(C6CCC(=O)NC6=O)C7=O)CC4)C5)ncc3Cl)ccc2n(C(C)C)c1=O` (stereo not drawn) [compound 483, 2-{[6-({5-chloro-2-[2-({4-[2-(2,6-dioxopiperidin-3-yl)-1,3-dioxo-2,3-dihydro-1H-isoindol-5-yl]piperazin-1-yl}methyl)-7-azaspiro[3.5]nonan-7-yl]pyrimidin-4-yl}amino)-2-oxo-1-(propan-2-yl)-1,2-dihydroquinolin-3-yl]oxy}-N-methylacetamide], in assay [1] (read-out: IC50), the IC50 was less than 10 nM. Further, in assay [2], the Dmax is 50 to 70%.

As for `CNC(=O)COc1cc2cc(Nc3nc(N4CCC(O[C@@H]5C[C@H](Oc6ccc7c(c6)C(=O)N(C6CCC(=O)NC6=O)C7=O)CN(C)C5)CC4)ncc3Cl)ccc2n(C(C)C)c1=O` (stereo partly drawn) [compound 461, 2-[(6-{[5-chloro-2-(4-{[(3R,5S)-5-{[2-(2,6-dioxopiperidin-3-yl)-1,3-dioxo-2,3-dihydro-1H-isoindol-5-yl]oxy}-1-methylpiperidin-3-yl]oxy}piperidin-1-yl)pyrimidin-4-yl]amino}-2-oxo-1-(propan-2-yl)-1,2-dihydroquinolin-3-yl)oxy]-N-methylacetamide], the IC50 in assay [1] (read-out: IC50) was 10 to 50 nM. Besides, the Dmax in assay [2] was in the range of 50 to 70%.

As to `CNC(=O)COc1cc2cc(Nc3nc(N(C)C)ncc3Cl)ccc2n(CCCOc2ccc3c(c2)C(=O)N(C2CCC(=O)NC2=O)C3=O)c1=O` (stereo not drawn) [compound 469, 2-[(6-{[5-chloro-2-(dimethylamino)pyrimidin-4-yl]amino}-1-(3-{[2-(2,6-dioxopiperidin-3-yl)-1,3-dioxo-2,3-dihydro-1H-isoindol-5-yl]oxy}propyl)-2-oxo-1,2-dihydroquinolin-3-yl)oxy]-N-methylacetamide], the IC50 in assay [1] (read-out: IC50) was in the range of 10 to 50 nM. In assay [2], this molecule yielded a Dmax of less than 50%.

In turn, `CNC(=O)COc1cc2cc(Nc3nc(N4CCN(C(C)(C)C5CCN(c6ccc7c(c6)C(=O)N(C6CCC(=O)NC6=O)C7=O)CC5)CC4)ncc3Cl)ccc2n(C)c1=O` (stereo not drawn) [compound 203, 2-((6-((5-chloro-2-(4-(2-(1-(2-(2,6-dioxopiperidin-3-yl)-1,3-dioxoisoindolin-5-yl)piperidin-4-yl)propan-2-yl)piperazin-1-yl)pyrimidin-4-yl)amino)-1-methyl-2-oxo-1,2-dihydroquinolin-3-yl)oxy)-N-methylacetamide] came in with an EC50 in assay [1] greater than 100 nM. In addition, in assay [2], the IC50 was less than 10 nM and the Dmax is no less than 70%.

For the molecule `CNC(=O)COc1cc2cc(Nc3nc(N4CCN(CC5CCN(c6cccc7c6C(=O)N(C6CCC(=O)NC6=O)C7=O)CC5)CC4)ncc3Cl)ccc2n(C)c1=O` (stereo not drawn) [compound 207, 2-((6-((5-chloro-2-(4-((1-(2-(2,6-dioxopiperidin-3-yl)-1,3-dioxoisoindolin-4-yl)piperidin-4-yl)methyl)piperazin-1-yl)pyrimidin-4-yl)amino)-1-methyl-2-oxo-1,2-dihydroquinolin-3-yl)oxy)-N-methylacetamide], the 50% effective concentration (EC50) in assay [1] fell in the range of 10 to 50 nM. Besides, in assay [2], the IC50 was less than 10 nM and the Dmax is no less than 70%.

For the molecule `CC(=O)COc1cc2cc(Nc3nc(N4CCC(CN5CCN(c6ccc7c(c6)CN(C6CCC(=O)NC6=O)C7=O)CC5)CC4)ncc3Cl)ccc2n(C)c1=O` (stereo not drawn) [compound 175, 3-(5-(4-((1-(5-chloro-4-((1-methyl-2-oxo-3-(2-oxopropoxy)-1,2-dihydroquinolin-6-yl)amino)pyrimidin-2-yl)piperidin-4-yl)methyl)piperazin-1-yl)-1-oxoisoindolin-2-yl)piperidine-2,6-dione], the IC50 in assay [1] (class symbols A-D, read-out: IC50 (nM)***) was less than 10 nM. This molecule also registered a Dmax in assay [2] (maximum, class symbols A-C) of 50 to 70%.

On to `CNC(=O)COc1cc2cc(Nc3nc(N4CCC(CN5CCN(c6ccc7c(c6)C(=O)N(C6CCC(=O)NC6=O)C7=O)CC5=O)CC4)ncc3Cl)ccc2n(C)c1=O` (stereo not drawn) [compound 196, 2-((6-((5-chloro-2-(4-((4-(2-(2,6-dioxopiperidin-3-yl)-1,3-dioxoisoindolin-5-yl)-2-oxopiperazin-1-yl)methyl)piperidin-1-yl)pyrimidin-4-yl)amino)-1-methyl-2-oxo-1,2-dihydroquinolin-3-yl)oxy)-N-methylacetamide], for which, in assay [1], the EC50 was in the range of 10 to 50 nM. Further, in assay [2], the IC50 fell in the range of 10 to 50 nM and the Dmax was 50 to 70%.

As for `CC(=O)[C@H](C)Oc1cc2cc(Nc3nc(N4CCC(CN5CCN(c6ccc7c(c6)C(=O)N([C@H]6CCC(=O)NC6=O)C7=O)CC5)CC4)ncc3Cl)ccc2n(C)c1=O` [compound 217, 5-(4-((1-(5-chloro-4-((1-methyl-2-oxo-3-(((S)-3-oxobutan-2-yl)oxy)-1,2-dihydroquinolin-6-yl)amino)pyrimidin-2-yl)piperidin-4-yl)methyl)piperazin-1-yl)-2-((S)-2,6-dioxopiperidin-3-yl)isoindoline-1,3-dione], the EC50 in assay [1] is greater than 100 nM. In assay [2], the IC50 is no less than 100 nM and the Dmax is less than 50%.
